From PubChem BioAssay (NCI)
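Values below derive from 48-hour exposures of cells grown in 96-well plates, with endpoints linearly interpolated between the two concentrations bracketing the appropriate inhibition level. Here, GI50 denotes the concentration required for 50% inhibition of growth. TGI is the concentration that stops growth completely.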

How the values were obtained:
Assay in all cases: inhibition of tumour cell growth, NCI panel, 48 h
HCC-2998 colon = tested on: HCC-2998 colon
NCI-H460 lung = tested on: NCI-H460 lung
KM12 colon = tested on: KM12 colon
RXF 393 renal = tested on: RXF 393 renal
SF-268 CNS = tested on: SF-268 CNS
SK-MEL-28 melanoma = tested on: SK-MEL-28 melanoma
SW-620 colon = tested on: SW-620 colon
U251 CNS = tested on: U251 CNS
NCI-H522 lung = tested on: NCI-H522 lung
SK-MEL-2 melanoma = tested on: SK-MEL-2 melanoma

Row | SMILES | GI50 (HCC-2998 colon) | TGI (HCC-2998 colon) | GI50 (NCI-H460 lung) | TGI (NCI-H460 lung) | GI50 (KM12 colon) | TGI (KM12 colon) | GI50 (RXF 393 renal) | TGI (RXF 393 renal) | GI50 (SF-268 CNS) | TGI (SF-268 CNS) | GI50 (SK-MEL-28 melanoma) | TGI (SK-MEL-28 melanoma) | GI50 (SW-620 colon) | TGI (SW-620 colon) | GI50 (U251 CNS) | TGI (U251 CNS) | GI50 (NCI-H522 lung) | TGI (NCI-H522 lung) | TGI (SK-MEL-2 melanoma) | GI50 (SK-MEL-2 melanoma)
1 | C/C(=C\CCc1ccoc1)CC/C=C(\C)CCCN1CCC(CO)CC1 | 2.1 µM | 4.03 µM | 2080 nM | 4.37 µM | 2450 nM | 5.41 µM | 1.54 µM | 4.26 µM | 5.65 µM | 19.4 µM | 1.89 µM | 4.03 µM | 2060 nM | 5.08 µM | 2410 nM | 9.24 µM | 2170 nM | 5.83 µM |  | 
2 | O=C(O)CCC1(Br)CCCCC(Br)C1=O (stereo not drawn) |  | > 100 µM |  | > 100 µM |  |  |  | > 100 µM |  | > 100 µM |  | > 100 µM |  | > 100 µM |  | > 100 µM |  | > 100 µM | > 100 µM | 
3 | C=C1Oc2nc3ccccc3c(=O)n2C1(C)C |  | > 100 µM |  | > 100 µM |  | > 10 µM |  |  |  | > 100 µM |  | > 100 µM |  | > 100 µM |  | > 100 µM |  | > 100 µM | > 100 µM | 
4 | O=C(CCCc1ccccn1)c1ccccc1 |  | > 100 µM |  | > 100 µM |  |  |  | > 100 µM |  | > 100 µM |  | > 100 µM |  | > 100 µM |  | > 100 µM |  | > 100 µM | > 100 µM | 
5 | CC(C)(C)[Si](C)(C)O/N=C\c1ccc(O[Si](C)(C)C(C)(C)C)cc1 |  | > 100 µM |  | > 100 µM |  | > 100 µM |  | 63.7 µM |  | > 100 µM |  |  |  | > 100 µM |  | 61.7 µM |  |  | > 100 µM | 
6 | N#CC(C#N)=CSc1ccccc1 |  |  |  | > 100 µM |  | > 100 µM |  | 45.2 µM |  | 54.1 µM |  | 81.1 µM |  | > 100 µM |  | 52.4 µM |  | 24.5 µM | 72.3 µM | 
7 | O=C1/C(=C\c2coc3ccccc3c2=O)c2ccccc2N1c1c(Cl)cccc1Cl | 5.33 µM | > 100 µM | 2050 nM | 16.3 µM | 3060 nM | 68.5 µM | 1.86 µM | 5.11 µM | 3.41 µM | > 100 µM | 3.91 µM | > 100 µM | 5280 nM | > 100 µM | 1450 nM | 35.6 µM |  |  | 6.04 µM | 2750 nM
8 | O=C(O)C1CCCCN1C(=O)c1ccccc1 (stereo not drawn) |  | > 100 µM |  | > 100 µM |  | > 100 µM |  | > 100 µM |  | > 100 µM |  | > 100 µM |  | > 100 µM |  | > 100 µM |  |  |  | 
9 | O=C(NNC(=O)c1ccncc1)c1ccncc1 |  |  |  | > 100 µM |  | > 100 µM |  | > 100 µM |  | > 100 µM |  | > 100 µM |  | > 100 µM |  | > 100 µM |  | > 100 µM | > 100 µM | 
10 | NC(=O)C(NC=O)c1ccccc1 (stereo not drawn) |  | > 100 µM |  | > 100 µM |  | > 100 µM |  | > 100 µM |  | > 100 µM |  | > 100 µM |  | > 100 µM |  | > 100 µM |  | > 100 µM |  | 
11 | Cc1cc(NS(=O)(=O)c2ccc(NC(=O)c3cccc4c(Nc5ccc(S(=O)(=O)Nc6cc(C)on6)cc5)c5ccccc5nc34)cc2)no1 |  |  |  | > 100 µM |  | > 100 µM |  | 61.5 µM |  | > 100 µM |  | > 100 µM |  | > 100 µM |  | 86.9 µM |  | 51.7 µM | 78.4 µM | 
12 | Cc1cc(C)cc(Sc2c([N+](=O)[O-])ncn2C)c1 |  | 92.7 µM |  | > 100 µM |  | 53.8 µM |  |  |  | 33.9 µM |  | 30 µM |  | 41.4 µM |  | 36.7 µM |  | 20 µM | 25.8 µM | 
13 | Cc1cc(C(=O)N2CCN(Cc3ccccc3)CC2)c(C)o1 |  | > 100 µM |  | > 100 µM |  | > 100 µM |  |  |  | > 100 µM |  | > 100 µM |  | > 100 µM |  | > 100 µM |  | > 100 µM |  | 
14 | CCN(CC)CCNC(=O)c1cccc2cc3ccccc3nc12 |  | 25.9 µM |  | 11.6 µM |  | 36.6 µM |  | 10.7 µM |  | 28.2 µM |  | 23.1 µM |  | > 100 µM |  | 81.5 µM |  |  | 19.9 µM | 
15 | O=C1C(Cl)=C(Nc2cccc(O)c2)C(=O)N1c1ccc(Cl)c(Cl)c1 | 15 µM | 29.5 µM | 19100 nM | 50.5 µM | 17000 nM | 32.5 µM | 14.5 µM | 42.2 µM | 23.8 µM | 62.3 µM | 40.6 µM | > 100 µM |  |  | 15500 nM | 30.9 µM | 30000 nM | > 100 µM | > 100 µM | 54800 nM
16 | C=C(C)[C@@H]1CCC2=C[C@@H](OC2=O)[C@@H](C(=C)C)C(=O)/C=C(/C)C(=O)C1 | 26.2 µM | 62.2 µM | 29100 nM | 92.2 µM | 24800 nM | 63.7 µM | 22.4 µM | 53.3 µM | 30 µM | > 100 µM | 34.8 µM | 87.5 µM | 24700 nM | 68.4 µM | 33400 nM | > 100 µM | 34400 nM | > 100 µM |  | 
17 | COc1cccc(C2C3=C(COC3=O)N(CCO)c3cc4c(cc32)OCCO4)c1 (stereo not drawn) | 0.0957 µM | 0.242 µM | 148 nM | 1.19 µM | 79.8 nM | 1.85 µM |  |  | 0.355 µM | > 50 µM | > 50 µM | > 50 µM | 104 nM | > 50 µM | 221 nM | > 50 µM | 8.07 nM | 0.0208 µM | 0.219 µM | 39.6 nM
18 | COc1ccc(C2=C(c3cc(OC)c(OC)c(OC)c3)C(=O)CC2)cc1 | 0.244 µM | 18.2 µM | 224 nM |  | 71.9 nM |  |  |  | 0.668 µM | > 33.8 µM | 0.489 µM | > 100 µM | 82 nM | > 100 µM | 324 nM | > 100 µM | 67.1 nM | 2.84 µM |  | 971 nM
19 | COC(=O)C1CCC(Nc2cccc(C(F)(F)F)c2)=N1 (stereo not drawn) |  | > 100 µM |  | > 100 µM |  | > 100 µM |  |  |  | > 100 µM |  | > 100 µM |  | > 100 µM |  | > 100 µM |  | > 100 µM | > 100 µM | 
20 | O=C(O)C1c2ccccc2C(C(=O)O)c2ccccc21 (stereo not drawn) |  | > 100 µM |  | > 100 µM |  | > 100 µM |  | > 100 µM |  | > 100 µM |  |  |  | > 100 µM |  | > 100 µM |  | > 100 µM | > 100 µM | 
